From US20220295791A1, “METHODS FOR VIRAL INACTIVATION BY ENVIRONMENTALLY COMPATIBLE DETERGENTS” (Eli Lilly and Company, priority 2019, published 2022)

Tests used:
[1] = system: XMuLV; assay type: cell-based, Xenotropic Murine Leukemiavirus
[2] = system: enveloped viral inactivation; details: under a diverse set of experimental conditions; cited from earlier work

Compound	XMuLV inactivation [1]	enveloped viral inactivation [2]
CC(O)CO (centres unmarked) [monopropylene glycol]	not inactivate XMuLV	
Triton X-100		greater than 4 logs
